This passage reports EC50 and CC50 results from patent US20230091047A1 (priority 2019, published 2023).

Series [1] deals with HBV (HepG2.117 cell line, inducibly HBV producing). The series is described as follows: Anti-HBV activity: intracellular HBV DNA by real-time PCR in HepG2.117 cells after 3 days of treatment. Type of series: cell-based, hepatitis B virus. Conditions: Hepatitis B virus, HepG2.117, 72 h, HepG2.117 cells, 3 days of treatment, intracellular HBV DNA by real-time PCR; mean value; read-out: EC50 (μM, mean value). In short, it runs like this:
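Tet-off HepG2.117; HBV replication induced (no doxycycline); serial compound dilutions, 3 d; intracellular HBV DNA by real-time PCR, HBV-specific primers/probe.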

Series [2] can be described thus: in vitro. Conditions: human, HepG2 or HepG2.117 cells, 3-days incubation (unmarked values), ATPlite; mean value. It is filed as cell-based. In short, it runs like this:
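Luminescent ATP quantitation served as the viability endpoint following a 3- or 4-day incubation with test compounds.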
(In general: ATP-based viability assays read luminescence as a measure of living cells.)

Bounds are passed on as bounds.

In the case of `COc1ccc(CN(C)c2nc3c(c(=O)[nH]2)CCN(C(=O)c2ccc(Cl)c(Cl)c2)C3)cc1` [Compound C31, 7-(3,4-dichlorobenzoyl)-2-{[(4-methoxyphenyl)methyl](methyl)amino}-5,6,7,8-tetrahydropyrido[3,4-d]pyrimidin-4(3H)-one], the EC50 in series [1] came to 2.63 µM. The 50% cytotoxic concentration (CC50) at 3 days in series [2] was > 50 µM.
Consider `COc1ccccc1-n1c(NC2CCC2)nc2c(c1=O)CCN(C(=O)c1ccc(Cl)c(Cl)c1)C2` [Compound C32, 2-(cyclobutylamino)-7-(3,4-dichlorobenzoyl)-3-(2-methoxyphenyl)-5,6,7,8-tetrahydropyrido[3,4-d]pyrimidin-4(3H)-one], for which the EC50 in series [1] turned out to be 19.9 µM. In addition, the CC50 at 3 days in series [2] was 29.5 µM.
The matching figures for `O=C(c1ccc(Cl)c(Cl)c1)N1CCc2c(nc(NCc3ccccc3)n(-c3ccccc3)c2=O)C1` [Compound C33, 2-(benzylamino)-7-(3,4-dichlorobenzoyl)-3-phenyl-5,6,7,8-tetrahydropyrido[3,4-d]pyrimidin-4(3H)-one]: 4.27 µM and 24.4 µM.
For the compound `COc1ccc(CNc2nc3c(c(=O)[nH]2)CCN(C(=O)c2ccc(Cl)c(Cl)c2)C3)cc1` [Compound C34, 7-(3,4-dichlorobenzoyl)-2-{[(4-methoxyphenyl)methyl]amino}-5,6,7,8-tetrahydropyrido[3,4-d]pyrimidin-4(3H)-one], the concentration giving a half-maximal response (EC50) in series [1] turned out to be 4.03 µM. In series [2], this compound displayed a cytotoxic concentration (CC50) at 3 days of 26.6 µM.
The matching figures for `COc1ccccc1-n1c(N[C@@H](C)c2ccccc2)nc2c(c1=O)CCN(C(=O)c1ccc(Cl)c(Cl)c1)C2` [Compound C35, 7-(3,4-dichlorobenzoyl)-3-(2-methoxyphenyl)-2-{[(1S)-1-phenylethyl]amino}-5,6,7,8-tetrahydropyrido[3,4-d]pyrimidin-4(3H)-one]: 1.41 µM and 33.2 µM.
The matching figures for `COc1ccc(CNc2nc3c(c(=O)n2-c2ccccc2OC)CC(C)N(C(=O)c2ccc(Cl)c(Cl)c2)C3)cc1` (centres unmarked) [Compound C36, 7-(3,4-dichlorobenzoyl)-3-(2-methoxyphenyl)-2-{[(4-methoxyphenyl)methyl]amino}-6-methyl-5,6,7,8-tetrahydropyrido[3,4-d]pyrimidin-4(3H)-one]: 1.26 µM and > 50 µM.
The matching figures for `COc1ccccc1-n1c(NCCO)nc2c(c1=O)CCN(C(=O)c1ccc(Cl)c(Cl)c1)C2` [Compound C37, 7-(3,4-dichlorobenzoyl)-2-[(2-hydroxyethyl)amino]-3-(2-methoxyphenyl)-5,6,7,8-tetrahydropyrido[3,4-d]pyrimidin-4(3H)-one]: 32.1 µM and > 50 µM.
With `CCNc1nc2c(c(=O)n1-c1ccccc1OC)CCN(C(=O)c1ccc(Cl)c(Cl)c1)C2` [Compound C38, 7-(3,4-dichlorobenzoyl)-2-(ethylamino)-3-(2-methoxyphenyl)-5,6,7,8-tetrahydropyrido[3,4-d]pyrimidin-4(3H)-one], the EC50 in series [1] was found to be 6.87 µM. In series [2], the half-maximal cytotoxic concentration (CC50) at 3 days is > 50 µM.
The matching figures for `COc1ccccc1-n1c(N2CCCC2)nc2c(c1=O)CCN(C(=O)c1ccc(Cl)c(Cl)c1)C2` [Compound C39, 7-(3,4-dichlorobenzoyl)-3-(2-methoxyphenyl)-2-(pyrrolidin-1-yl)-5,6,7,8-tetrahydropyrido[3,4-d]pyrimidin-4(3H)-one]: 9.21 µM and > 50 µM.
The matching figures for `COc1ccccc1-n1c(N2CCOCC2)nc2c(c1=O)CCN(C(=O)c1ccc(Cl)c(Cl)c1)C2` [Compound C40, 7-(3,4-dichlorobenzoyl)-3-(2-methoxyphenyl)-2-(morpholin-4-yl)-5,6,7,8-tetrahydropyrido[3,4-d]pyrimidin-4(3H)-one]: 11 µM and > 50 µM.
For the compound `COc1ccc(CNc2nc3c(c(=O)n2Cc2ccccc2)CCN(C(=O)c2ccc(Cl)c(Cl)c2)C3)cc1` [Compound C41, 3-benzyl-7-(3,4-dichlorobenzoyl)-2-{[(4-methoxyphenyl)methyl]amino}-5,6,7,8-tetrahydropyrido[3,4-d]pyrimidin-4(3H)-one], the half-maximal effective concentration (EC50) in series [1] was 8.7 µM. Further, the CC50 at 3 days in series [2] is > 50 µM.
The matching figures for `CC(C)Nc1nc2c(c(=O)[nH]1)CCN(C(=O)c1ccc(Cl)c(Cl)c1)C2` [Compound C42, 7-(3,4-dichlorobenzoyl)-2-[(propan-2-yl)amino]-5,6,7,8-tetrahydropyrido[3,4-d]pyrimidin-4(3H)-one]: 2.79 µM and > 50 µM.
As to `COc1ccc(CN(C)c2nc3c(c(=O)n2-c2ccccc2OC)CCN(C(=O)c2ccc(Cl)c(Cl)c2)C3)cc1` [Compound C43, 7-(3,4-dichlorobenzoyl)-3-(2-methoxyphenyl)-2-{[(4-methoxyphenyl)methyl](methyl)amino}-5,6,7,8-tetrahydropyrido[3,4-d]pyrimidin-4(3H)-one], the EC50 in series [1] stood at 5.64 µM. Further, the CC50 at 3 days in series [2] was > 50 µM.
Take `COc1ccccc1-n1c(N[C@H](C)c2ccccc2)nc2c(c1=O)CCN(C(=O)c1ccc(Cl)c(Cl)c1)C2` [Compound C44, 7-(3,4-dichlorobenzoyl)-3-(2-methoxyphenyl)-2-{[(1R)-1-phenylethyl]amino}-5,6,7,8-tetrahydropyrido[3,4-d]pyrimidin-4(3H)-one]: the EC50 in series [1] turned out to be 6.99 µM. Also, in series [2], it took 25.3 µM to reach half-maximal cytotoxicity (CC50 at 3 days).
The matching figures for `COc1ccccc1-n1c(NC2CCCC2)nc2c(c1=O)CCN(C(=O)c1ccc(Cl)c(Cl)c1)C2` [Compound C45, 2-(cyclopentylamino)-7-(3,4-dichlorobenzoyl)-3-(2-methoxyphenyl)-5,6,7,8-tetrahydropyrido[3,4-d]pyrimidin-4(3H)-one]: 6.62 µM and 27.2 µM.
The matching figures for `COc1ccccc1-n1c(N(C)C)nc2c(c1=O)CCN(C(=O)c1ccc(Cl)c(Cl)c1)C2` [Compound C46, 7-(3,4-dichlorobenzoyl)-2-(dimethylamino)-3-(2-methoxyphenyl)-5,6,7,8-tetrahydropyrido[3,4-d]pyrimidin-4(3H)-one]: 6.49 µM and > 50 µM.
On to `COc1ccccc1-n1c(NC(C)C2CC2)nc2c(c1=O)CCN(C(=O)c1ccc(Cl)c(Cl)c1)C2` (centres unmarked) [Compound C47, 2-[(1-cyclopropylethyl)amino]-7-(3,4-dichlorobenzoyl)-3-(2-methoxyphenyl)-5,6,7,8-tetrahydropyrido[3,4-d]pyrimidin-4(3H)-one], for which the concentration giving a half-maximal response (EC50) in series [1] is 2.68 µM. This compound returned a 50% cytotoxic concentration (CC50) at 3 days in series [2] of 27.3 µM.
Take `COc1ccccc1-n1c(NC2COC2)nc2c(c1=O)CCN(C(=O)c1ccc(Cl)c(Cl)c1)C2` [Compound C48, 7-(3,4-dichlorobenzoyl)-3-(2-methoxyphenyl)-2-[(oxetan-3-yl)amino]-5,6,7,8-tetrahydropyrido[3,4-d]pyrimidin-4(3H)-one]: the concentration giving a half-maximal response (EC50) in series [1] stood at 30.1 µM. Besides, the cytotoxic concentration (CC50) at 3 days in series [2] is > 50 µM.
Turning to `CCC(C)Nc1nc2c(c(=O)n1-c1ccccc1OC)CCN(C(=O)c1ccc(Cl)c(Cl)c1)C2` (centres unmarked) [Compound C49, 2-[(butan-2-yl)amino]-7-(3,4-dichlorobenzoyl)-3-(2-methoxyphenyl)-5,6,7,8-tetrahydropyrido[3,4-d]pyrimidin-4(3H)-one], the concentration for a half-maximal effect (EC50) in series [1] came to 2.41 µM. Further, half-maximal cytotoxicity in series [2] (CC50 at 3 days) was put at 26.8 µM.
In the case of `COc1ccccc1-n1c(NCC2CC2)nc2c(c1=O)CCN(C(=O)c1ccc(Cl)c(Cl)c1)C2` [Compound C50, 2-[(cyclopropylmethyl)amino]-7-(3,4-dichlorobenzoyl)-3-(2-methoxyphenyl)-5,6,7,8-tetrahydropyrido[3,4-d]pyrimidin-4(3H)-one], in series [1], the concentration giving a half-maximal response (EC50) was 5.85 µM. The 50% cytotoxic concentration (CC50) at 3 days in series [2] is 26.7 µM.
The matching figures for `COCCn1c(NCc2ccc(OC)cc2)nc2c(c1=O)CCN(C(=O)c1ccc(Cl)c(Cl)c1)C2` [Compound C51, 7-(3,4-dichlorobenzoyl)-3-(2-methoxyethyl)-2-{[(4-methoxyphenyl)methyl]amino}-5,6,7,8-tetrahydropyrido[3,4-d]pyrimidin-4(3H)-one]: 4.35 µM and 36.6 µM.
The matching figures for `COc1ccc(CNc2nc3c(c(=O)n2C)CCN(C(=O)c2ccc(Cl)c(Cl)c2)C3)cc1` [Compound C52, 7-(3,4-dichlorobenzoyl)-2-{[(4-methoxyphenyl)methyl]amino}-3-methyl-5,6,7,8-tetrahydropyrido[3,4-d]pyrimidin-4(3H)-one]: 5.1 µM and > 50 µM.
Turning to `COc1ccccc1-n1c(NC(C)(C)C)nc2c(c1=O)CCN(C(=O)c1ccc(Cl)c(Cl)c1)C2` [Compound C53, 2-(tert-butylamino)-7-(3,4-dichlorobenzoyl)-3-(2-methoxyphenyl)-5,6,7,8-tetrahydropyrido[3,4-d]pyrimidin-4(3H)-one], the EC50 in series [1] was found to be 2.05 µM. The compound further registered a CC50 at 3 days in series [2] of 31.6 µM.
`COc1ccccc1-n1c(OC)nc2c(c1=O)CCN(C(=O)c1ccc(Cl)c(Cl)c1)C2` [Compound C54, 7-(3,4-dichlorobenzoyl)-2-methoxy-3-(2-methoxyphenyl)-5,6,7,8-tetrahydropyrido[3,4-d]pyrimidin-4(3H)-one]: the 50% effective concentration (EC50) in series [1] came to 4.59 µM. Moreover, it took 29.7 µM to reach half-maximal cytotoxicity in series [2] (CC50 at 3 days).
The matching figures for `COc1ccccc1-n1c(NC2CCc3ccccc32)nc2c(c1=O)CCN(C(=O)c1ccc(Cl)c(Cl)c1)C2` (centres unmarked) [Compound C55, 7-(3,4-dichlorobenzoyl)-2-[(2,3-dihydro-1H-inden-1-yl)amino]-3-(2-methoxyphenyl)-5,6,7,8-tetrahydropyrido[3,4-d]pyrimidin-4(3H)-one]: 22.1 µM and 23.6 µM.

By EC50 is commonly meant the concentration needed to bring the measured effect to its halfway point. For orientation: CC50 means the concentration at which the toxic effect on the cells reaches its halfway point.
